Data published in patent US9187464B2, “TRPV4 antagonists” (GlaxoSmithKline Intellectual Property (No. 2) Limited, priority 2011, dated 2015).
pIC50: −log10 of the molar value.

Molecular target: T1, human TRPV4 (Homo sapiens, UniProt Q9HBA0)
T1 construct: expressed in transfected cells; host or cells: HEK-293-MSR-II cells transduced with 1% BacMam virus
Experiment: Ligand-gated assay (Fluo4 calcium, FLIPR; inhibition of agonist-induced activation)
Assay type: cell-based
Conditions: HEK-293-MSR-II cells transduced with BacMam human TRPV4; agonist at EC80
Protocol: TRP channel activation/opening results in an influx of divalent and monovalent cations including calcium. The resulting changes in intracellular calcium were monitored using a calcium selective fluorescent dye Fluo4 (MDS Analytical Technologies). Dye loaded cells were initially exposed to test compound to verify a lack of agonist activity. Cells were subsequently activated by addition of an agonist and inhibition of the agonist-induced activation was recorded. Human embryonic kidney 293 cells stably expressing the macrophage scavenger receptor class II (HEK-293-MSR-II) and transduced with 1% BacMam (J. P. Condreay, S. M. Witherspoon, W. C. Clay and T. A. Kost, Proc Natl Acad Sci 96 (1999), pp. 127-132) virus expressing the human TRPV4 gene were plated at 15000 cells/well in a volume of 50 μL in a 384 well poly-D lysine coated plate. Cells were incubated for 24 hours at 37 degrees and 5% CO2. Media was then aspirated using a Tecan Plate-washer and replaced with 20 μL of dye loading buffer: HBSS, 500 uM Brilliant Black (MDS Analytical Technologies), 2 uM Fluo-4. Dye loaded plates were then incubated in the dark at room temperature for 1-1.5 hours. 10 μL of test compound diluted in HBSS (HBSS with 1.5 mM Calcium Chloride, 1.5 mM Magnesium Chloride and 10 mM HEPES. pH 7.4), +0.01% Chaps was added to the plate, incubated for 10 min at room temperature in the dark and then 10 μL of agonist was added at a final concentration equal to the agonist EC80. Calcium release was measured using the FLIPRtetra (MDS Analytical Technologies) or FLIPR384 (MDS Analytical Technologies).
IC50 between 0.1-10 nM (+++), >10-50 nM (++), >50-500 nM (+).

T1 sequence (Q9HBA0 whole entry): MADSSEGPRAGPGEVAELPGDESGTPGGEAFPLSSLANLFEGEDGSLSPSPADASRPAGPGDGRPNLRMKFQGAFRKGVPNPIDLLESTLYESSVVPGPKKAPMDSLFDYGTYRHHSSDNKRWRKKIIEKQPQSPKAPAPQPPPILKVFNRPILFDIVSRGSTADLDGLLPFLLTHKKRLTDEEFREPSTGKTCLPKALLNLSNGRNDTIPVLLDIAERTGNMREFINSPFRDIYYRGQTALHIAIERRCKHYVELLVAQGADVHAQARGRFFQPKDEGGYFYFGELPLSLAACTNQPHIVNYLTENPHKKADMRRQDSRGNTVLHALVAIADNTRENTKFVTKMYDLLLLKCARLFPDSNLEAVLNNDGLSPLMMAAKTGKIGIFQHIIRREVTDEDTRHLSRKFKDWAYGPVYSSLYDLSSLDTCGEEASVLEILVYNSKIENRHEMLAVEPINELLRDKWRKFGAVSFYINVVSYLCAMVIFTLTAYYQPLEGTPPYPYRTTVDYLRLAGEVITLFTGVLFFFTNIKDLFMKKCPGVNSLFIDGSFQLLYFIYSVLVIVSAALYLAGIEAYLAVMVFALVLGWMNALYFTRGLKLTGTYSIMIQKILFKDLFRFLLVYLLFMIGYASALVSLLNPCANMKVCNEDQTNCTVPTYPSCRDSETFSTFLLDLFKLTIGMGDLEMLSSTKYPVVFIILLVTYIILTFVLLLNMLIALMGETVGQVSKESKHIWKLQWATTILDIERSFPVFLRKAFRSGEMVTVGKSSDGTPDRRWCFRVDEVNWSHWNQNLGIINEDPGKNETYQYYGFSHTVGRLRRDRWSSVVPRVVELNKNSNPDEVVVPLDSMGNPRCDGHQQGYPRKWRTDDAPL

First: CCOc1ccc(N2C[C@@]3(CCC[C@](C)(Cn4cnc5ccc(C#N)cc54)C3)OC2=O)nn1 [Example 136, 1-({(5S,7S)-3-[6-(ethyloxy)-3-pyridazinyl]-7-methyl-2-oxo-1-oxa-3-azaspiro[4.5]dec-7-yl}methyl)-1H-benzimidazole-6-carbonitrile]
Second: CC(C)(C)c1ccc(N2C[C@@]3(CCC[C@](C)(Cn4cnc5ccc(C#N)cc54)C3)OC2=O)nn1 [Example 48, 1-(((5S,7S)-3-(6-(tert-butyl)pyridazin-3-yl)-7-methyl-2-oxo-1-oxa-3-azaspiro[4.5]decan-7-yl)methyl)-1H-benzo[d]imidazole-6-carbonitrile]
The pIC50 of the first is lower: 6.30 to 7.30 for the first, 8.00 to 10.00 for the second. The second is the more potent here.

First: C[C@]1(Cn2cnc3ccc(C#N)cc32)CCC[C@@]2(CN(c3ncc(Cl)cc3Cl)C(=O)O2)C1 [Example 112, 1-(((7S)-3-(3,5-dichloropyridin-2-yl)-7-methyl-2-oxo-1-oxa-3-azaspiro[4.5]decan-7-yl)methyl)-1H-benzo[d]imidazole-6-carbonitrile]
Second: Cc1cnc(N2C[C@@]3(CCC[C@](C)(Cn4cnc5ccc(C#N)cc54)C3)OC2=O)c(C)n1 [Example 130, 1-(((5S,7S)-3-(3,5-dimethylpyrazin-2-yl)-7-methyl-2-oxo-1-oxa-3-azaspiro[4.5]decan-7-yl)methyl)-1H-benzo[d]imidazole-6-carbonitrile]
The pIC50 of the first is higher: 8.00 to 10.00 for the first, 6.30 to 7.30 for the second. The first is the more potent here.

Compared with `N#Cc1ccc2ncn(C[C@H]3CCC[C@]4(C3)CN(Cc3cn(-c5cncc(Cl)c5)nn3)C(=O)O4)c2c1` [Example 106, 1-[((5S,7S)-3-{[1-(5-chloro-3-pyridinyl)-1H-1,2,3-triazol-4-yl]methyl}-2-oxo-1-oxa-3-azaspiro[4.5]dec-7-yl)methyl]-1H-benzimidazole-6-carbonitrile], `N#Cc1ccc2ncn(C[C@H]3CCC[C@]4(C3)CN(Cc3cn(-c5cccc(Cl)c5)nn3)C(=O)O4)c2c1` [Example 90, 1-[((5S,7S)-3-{[1-(3-chlorophenyl)-1H-1,2,3-triazol-4-yl]methyl}-2-oxo-1-oxa-3-azaspiro[4.5]dec-7-yl)methyl]-1H-benzimidazole-6-carbonitrile] is higher in pIC50: 7.30 to 8.00 for the first, 8.00 to 10.00 for the second.

`N#Cc1ccc2ncn(C[C@H]3CCC[C@]4(C3)CN(Cc3cn(C5CCCCC5)nn3)C(=O)O4)c2c1` [Example 97, 1-({(5S,7S)-3-[(1-cyclohexaneyl-1H-1,2,3-triazol-4-yl)methyl]-2-oxo-1-oxa-3-azaspiro[4.5]dec-7-yl}methyl)-1H-benzimidazole-6-carbonitrile] and `COc1cccc(-n2cc(CN3C[C@@]4(CCC[C@H](Cn5cnc6ccc(C#N)cc65)C4)OC3=O)nn2)c1` [Example 95, 1-{[(5S,7S)-3-({1-[3-(methyloxy)phenyl]-1H-1,2,3-triazol-4-yl}methyl)-2-oxo-1-oxa-3-azaspiro[4.5]dec-7-yl]methyl}-1H-benzimidazole-6-carbonitrile] fall in the same range of pIC50: 7.30 to 8.00 for the first, 7.30 to 8.00 for the second.

`CCOc1ncc(N2C[C@@]3(CCC[C@](C)(Cn4cnc5ccc(C#N)cc54)C3)OC2=O)cn1` [Example 113, 1-(((5S,7S)-3-(2-ethoxypyrimidin-5-yl)-7-methyl-2-oxo-1-oxa-3-azaspiro[4.5]decan-7-yl)methyl)-1H-benzo[d]imidazole-6-carbonitrile] and `CN(C)c1ncc(N2C[C@@]3(CCC[C@](C)(Cn4cnc5ccc(C#N)cc54)C3)OC2=O)cn1` [Example 145, 1-(((5S,7S)-3-(2-(dimethylamino)pyrimidin-5-yl)-7-methyl-2-oxo-1-oxa-3-azaspiro[4.5]decan-7-yl)methyl)-1H-benzo[d]imidazole-6-carbonitrile] fall in the same range of pIC50: 7.30 to 8.00 for the first, 7.30 to 8.00 for the second.

First: N#Cc1ccc2ncn(C[C@H]3CCC[C@]4(C3)CN(Cc3nc(-c5ccccc5)cs3)C(=O)O4)c2c1 [Example 66, 1-({(5S,7S)-2-oxo-3-[(4-phenyl-1,3-thiazol-2-yl)methyl]-1-oxa-3-azaspiro[4.5]dec-7-yl}methyl)-1H-benzimidazole-6-carbonitrile]
Second: CC(C)(CN1C[C@@]2(CCC[C@H](Cn3cnc4c(Cl)cc(C#N)cc43)C2)OC1=O)c1nc(-c2ccccc2)no1 [Example 73, 4-chloro-1-({(5S,7S)-3-[2-methyl-2-(3-phenyl-1,2,4-oxadiazol-5-yl)propyl]-2-oxo-1-oxa-3-azaspiro[4.5]dec-7-yl}methyl)-1H-benzimidazole-6-carbonitrile]
The pIC50 of the first is lower: 7.30 to 8.00 for the first, 8.00 to 10.00 for the second.

First: CC(C)(C)n1cc(N2C[C@@]3(CCC[C@](C)(Cn4cnc5ccc(C#N)cc54)C3)OC2=O)nn1 [Example 52, 1-(((5S,7S)-3-(1-(tert-butyl)-1H-1,2,3-triazol-4-yl)-7-methyl-2-oxo-1-oxa-3-azaspiro[4.5]decan-7-yl)methyl)-1H-benzo[d]imidazole-6-carbonitrile]
Second: CC(C)(C)n1cc(N2C[C@@]3(CCC[C@](C)(Cn4cnc5ccc(C#N)cc54)C3)OC2=O)cn1 [Example 43, 1-(((5S,7S)-3-(1-(tert-butyl)-1H-pyrazol-4-yl)-7-methyl-2-oxo-1-oxa-3-azaspiro[4.5]decan-7-yl)methyl)-1H-benzo[d]imidazole-6-carbonitrile]
The pIC50 of the first is lower: 6.30 to 7.30 for the first, 7.30 to 8.00 for the second.

`CC(C)(C)c1cnc(N2C[C@@]3(CCC[C@](C)(Cn4cnc5ccc(C#N)cc54)C3)OC2=O)nc1` [Example 49, 1-(((5S,7S)-3-(5-(tert-butyl)pyrimidin-2-yl)-7-methyl-2-oxo-1-oxa-3-azaspiro[4.5]decan-7-yl)methyl)-1H-benzo[d]imidazole-6-carbonitrile] and `CC(C)(C)c1noc(N2C[C@@]3(CCC[C@](C)(Cn4cnc5ccc(C#N)cc54)C3)OC2=O)c1Cl` [Example 10, 1-({(5S,7S)-3-[4-Chloro-3-(1,1-dimethylethyl)-5-isoxazolyl]-7-methyl-2-oxo-1-oxa-3-azaspiro[4.5]dec-7-yl}methyl)-1H-benzimidazole-6-carbonitrile] fall in the same range of pIC50: 8.00 to 10.00 for the first, 8.00 to 10.00 for the second.

Compared with `C[C@]1(Cn2cnc3ccc(C#N)cc32)CCC[C@@]2(CN(c3cc(C4CCC4)no3)C(=O)O2)C1` [Example 40, 1-(((5S,7S)-3-(3-cyclobutylisoxazol-5-yl)-7-methyl-2-oxo-1-oxa-3-azaspiro[4.5]decan-7-yl)methyl)-1H-benzo[d]imidazole-6-carbonitrile], `COc1cc(C)c(N2C[C@@]3(CCC[C@](C)(Cn4cnc5ccc(C#N)cc54)C3)OC2=O)cn1` [Example 15, 1-(((5S,7S)-3-(6-Methoxy-4-methylpyridin-3-yl)-7-methyl-2-oxo-1-oxa-3-azasbiro[4.5]decan-7-yl)methyl)-1H-benzo[d]imidazole-6-carbonitrile] is higher in pIC50: 7.30 to 8.00 for the first, 8.00 to 10.00 for the second.

`CC(C)(C)c1noc(N2C[C@@]3(CCC[C@H](Cn4cnc5ccc(C#N)cc54)C3)OC2=O)c1F` [Example 47, 1-(((5S,7S)-3-(3-(tert-butyl)-4-fluoroisoxazol-5-yl)-2-oxo-1-oxa-3-azaspiro[4.5]decan-7-yl)methyl)-1H-benzo[d]imidazole-6-carbonitrile] and `CC(C)Cc1noc(C(C)(C)CN2C[C@@]3(CCC[C@H](Cn4cnc5ccc(C#N)cc54)C3)OC2=O)n1` [Example 82, 1-[((5S,7S)-3-{2-methyl-2-[3-(2-methylpropyl)-1,2,4-oxadiazol-5-yl]propyl}-2-oxo-1-oxa-3-azaspiro[4.5]dec-7-yl)methyl]-1H-benzimidazole-6-carbonitrile] fall in the same range of pIC50: 8.00 to 10.00 for the first, 8.00 to 10.00 for the second.

`CCOc1ccc(CN2CC3(CCC[C@](C)(Cn4cnc5ccc(C#N)cc54)C3)OC2=O)nc1` (stereo in doubt) [Example 157, 1-(((5S,7S)-3-((5-ethoxypyridin-2-yl)methyl)-7-methyl-2-oxo-1-oxa-3-azaspiro[4.5]decan-7-yl)methyl)-1H-benzo[d]imidazole-6-carbonitrile] and `C[C@]1(Cn2cnc3ccc(C#N)cc32)CCC[C@@]2(CN(Cc3ccccn3)C(=O)O2)C1` [Example 4, 1-{[(5S,7S)-7-Methyl-2-oxo-3-(2-pyridinylmethyl)-1-oxa-3-azaspiro[4.5]dec-7-yl]methyl}-1H-benzimidazole-6-carbonitrile] fall in the same range of pIC50: 8.00 to 10.00 for the first, 8.00 to 10.00 for the second.

First: C[C@]1(Cn2cnc3ccc(C#N)cc32)CCC[C@@]2(CN(Cc3csc4ncccc34)C(=O)O2)C1 (relative stereo) [Example 152, 1-{[(trans)-7-methyl-2-oxo-3-(thieno[2,3-b]pyridin-3-ylmethyl)-1-oxa-3-azaspiro[4.5]dec-7-yl]methyl}-1H-benzimidazole-6-carbonitrile]
Second: CC(C)n1cc(CN2C[C@@]3(CCC[C@](C)(Cn4cnc5ccc(C#N)cc54)C3)OC2=O)nn1 [Example 104, 1-[((5S,7S)-7-methyl-3-{[1-(1-methylethyl)-1H-1,2,3-triazol-4-yl]methyl}-2-oxo-1-oxa-3-azaspiro[4.5]dec-7-yl)methyl]-1H-benzimidazole-6-carbonitrile]
The pIC50 of the first is higher: 8.00 to 10.00 for the first, 6.30 to 7.30 for the second. The first is the more potent here.

`CC(C)(C#N)c1noc(N2C[C@@]3(CCC[C@](C)(Cn4cnc5ccc(C#N)cc54)C3)OC2=O)c1Cl` [Example 107, 1-(((5S,7S)-3-(4-chloro-3-(2-cyanopropan-2-yl)isoxazol-5-yl)-7-methyl-2-oxo-1-oxa-3-azaspiro[4.5]decan-7-yl)methyl)-1H-benzo[d]imidazole-6-carbonitrile] was tested, and the pIC50 was 8.00 to 10.00.
